Data as given in the NIST ThermoML archive (doi:10.1016/j.jct.2013.10.034).
Numbers after ± are expanded uncertainties.

What was measured:
[1] = Liquid; for viscosity / mass density: 100 kPa; for viscosity: Falling or rolling sphere viscometry; for mass density: Vibrating tube method; for vapor or sublimation pressure: Ebulliometric method (Recirculating still)
[2] = xn = mol fraction of the nth substance listed; details: 100 kPa, Liquid, x2 = 0; for viscosity: Falling or rolling sphere viscometry; for mass density: Vibrating tube method

Row | Compound | viscosity ([1]; 298.15 K) | mass density ([1]; 298.15 K) | viscosity ([1]; 303.15 K) | mass density ([1]; 303.15 K) | viscosity ([1]; 308.15 K) | mass density ([1]; 308.15 K) | viscosity ([1]; 313.15 K) | mass density ([1]; 313.15 K) | viscosity ([1]; 318.15 K) | mass density ([1]; 318.15 K) | viscosity ([1]; 323.15 K) | mass density ([1]; 323.15 K) | viscosity ([1]; 328.15 K) | mass density ([1]; 328.15 K) | viscosity ([1]; 333.15 K) | mass density ([1]; 333.15 K) | viscosity ([1]; 338.15 K) | mass density ([1]; 338.15 K) | viscosity ([1]; 343.15 K) | mass density ([1]; 343.15 K) | also measured
1 | CCCC[N+]1(C)CCCCC1.N#C[N-]C#N [1-butyl-1-methylpiperidinium dicyanamide] | 123.3 ± 20 mPa·s | 1016.13 ± 0.5 kg/m3 | 92.97 ± 15 mPa·s | 1012.98 ± 0.5 kg/m3 | 75.58 ± 12 mPa·s | 1010.65 ± 0.49 kg/m3 | 60.93 ± 9.8 mPa·s | 1007.92 ± 0.49 kg/m3 | 49.79 ± 8 mPa·s | 1005.2 ± 0.49 kg/m3 | 41.31 ± 6.6 mPa·s | 1002.47 ± 0.48 kg/m3 | 34.72 ± 5.6 mPa·s | 999.77 ± 0.48 kg/m3 | 29.45 ± 4.7 mPa·s | 997.08 ± 0.48 kg/m3 | 23.31 ± 3.7 mPa·s | 994.39 ± 0.48 kg/m3 | 21.98 ± 3.5 mPa·s | 991.72 ± 0.48 kg/m3 | 
2 | CCCC[N+]1(C)CCCC1.N#CN=C=[N-] [1-butyl-1-methylpyrrolidinium dicyanamide] | 34.74 ± 5.6 mPa·s | 1019.2 ± 1.4 kg/m3 | 29.33 ± 4.7 mPa·s | 1016.38 ± 1.4 kg/m3 | 25.09 ± 4 mPa·s | 1013.58 ± 1.3 kg/m3 | 21.7 ± 3.5 mPa·s | 1010.79 ± 1.3 kg/m3 | 18.95 ± 3 mPa·s | 1008 ± 1.3 kg/m3 | 16.72 ± 2.7 mPa·s | 1005.23 ± 1.3 kg/m3 | 14.84 ± 2.4 mPa·s | 1002.48 ± 1.3 kg/m3 | 13.28 ± 2.1 mPa·s | 999.74 ± 1.3 kg/m3 | 11.96 ± 1.9 mPa·s | 997 ± 1.3 kg/m3 | 10.82 ± 1.7 mPa·s | 994.28 ± 1.3 kg/m3 | 
3 | O [water] | 0.89 ± 0.14 mPa·s |  | 0.808 ± 0.13 mPa·s |  | 0.74 ± 0.12 mPa·s |  | 0.681 ± 0.11 mPa·s | 992.15 ± 0.2 kg/m3 | 0.63 ± 0.1 mPa·s | 990.14 ± 0.2 kg/m3 | 0.593 ± 0.095 mPa·s | 987.93 ± 0.2 kg/m3 | 0.56 ± 0.09 mPa·s | 985.61 ± 0.2 kg/m3 | 0.528 ± 0.085 mPa·s | 983.17 ± 0.2 kg/m3 | 0.5 ± 0.08 mPa·s | 980.3 ± 0.2 kg/m3 | 0.473 ± 0.076 mPa·s | 978.1 ± 0.2 kg/m3 | vapor or sublimation pressure ([1]; 328.15 K): 15.8 ± 0.5 kPa; vapor or sublimation pressure ([1]; 338.15 K): 25.1 ± 0.5 kPa; vapor or sublimation pressure ([1]; 348.15 K): 38.6 ± 0.5 kPa; vapor or sublimation pressure ([1]; 358.15 K): 57.9 ± 0.5 kPa; vapor or sublimation pressure ([1]; 368.15 K): 84.4 ± 0.5 kPa
4 | O [water] + CCCC[N+]1(C)CCCC1.N#CN=C=[N-] |  |  |  |  |  |  |  |  |  |  |  |  |  |  |  |  |  |  |  |  | viscosity ([2]; 298.15 K): 0.89 ± 0.14 mPa·s; viscosity ([2]; 303.15 K): 0.808 ± 0.13 mPa·s; viscosity ([2]; 308.15 K): 0.74 ± 0.12 mPa·s; viscosity ([2]; 313.15 K): 0.681 ± 0.11 mPa·s; mass density ([2]; 313.15 K): 992.15 ± 0.2 kg/m3; viscosity ([2]; 318.15 K): 0.63 ± 0.1 mPa·s; mass density ([2]; 318.15 K): 990.14 ± 0.2 kg/m3; viscosity ([2]; 323.15 K): 0.593 ± 0.095 mPa·s; mass density ([2]; 323.15 K): 987.93 ± 0.2 kg/m3; viscosity ([2]; 328.15 K): 0.56 ± 0.09 mPa·s; mass density ([2]; 328.15 K): 985.61 ± 0.2 kg/m3; viscosity ([2]; 333.15 K): 0.528 ± 0.085 mPa·s; mass density ([2]; 333.15 K): 983.17 ± 0.2 kg/m3; viscosity ([2]; 338.15 K): 0.5 ± 0.08 mPa·s; mass density ([2]; 338.15 K): 980.3 ± 0.2 kg/m3; viscosity ([2]; 343.15 K): 0.473 ± 0.076 mPa·s; mass density ([2]; 343.15 K): 978.1 ± 0.2 kg/m3
5 | O [water] + CCCC[N+]1(C)CCCCC1.N#C[N-]C#N |  |  |  |  |  |  |  |  |  |  |  |  |  |  |  |  |  |  |  |  | viscosity ([2]; 298.15 K): 0.89 ± 0.14 mPa·s; viscosity ([2]; 303.15 K): 0.808 ± 0.13 mPa·s; viscosity ([2]; 308.15 K): 0.74 ± 0.12 mPa·s; viscosity ([2]; 313.15 K): 0.681 ± 0.11 mPa·s; mass density ([2]; 313.15 K): 992.15 ± 0.2 kg/m3; viscosity ([2]; 318.15 K): 0.63 ± 0.1 mPa·s; mass density ([2]; 318.15 K): 990.14 ± 0.2 kg/m3; viscosity ([2]; 323.15 K): 0.593 ± 0.095 mPa·s; mass density ([2]; 323.15 K): 987.93 ± 0.2 kg/m3; viscosity ([2]; 328.15 K): 0.56 ± 0.09 mPa·s; mass density ([2]; 328.15 K): 985.61 ± 0.2 kg/m3; viscosity ([2]; 333.15 K): 0.528 ± 0.085 mPa·s; mass density ([2]; 333.15 K): 983.17 ± 0.2 kg/m3; viscosity ([2]; 338.15 K): 0.5 ± 0.08 mPa·s; mass density ([2]; 338.15 K): 980.3 ± 0.2 kg/m3; viscosity ([2]; 343.15 K): 0.473 ± 0.076 mPa·s; mass density ([2]; 343.15 K): 978.1 ± 0.2 kg/m3
